These results are taken from patent publication US6500842B1, “8-hydroxy-7-substituted quinolines as anti-viral agents” (Pharmacia & Upjohn Company, priority 1996, dated 2002).

Broadly, the IC50 is the concentration needed to halve the response being measured. For orientation: inhibition means the relative decrease from the control value, in per cent. Read a low inhibition as a weak effect.

Values joined by “and” are separate entries in the source; they are usually repeats but may differ in a detail not shown here. Equal values may be shown once.

In one experiment the target is T1, HCMV polymerase (Human cytomegalovirus, UniProt P08546).
T1 construct: made in house; host or cells: recombinant baculovirus-infected SF-9 cells
T1 sequence (P08546 whole entry): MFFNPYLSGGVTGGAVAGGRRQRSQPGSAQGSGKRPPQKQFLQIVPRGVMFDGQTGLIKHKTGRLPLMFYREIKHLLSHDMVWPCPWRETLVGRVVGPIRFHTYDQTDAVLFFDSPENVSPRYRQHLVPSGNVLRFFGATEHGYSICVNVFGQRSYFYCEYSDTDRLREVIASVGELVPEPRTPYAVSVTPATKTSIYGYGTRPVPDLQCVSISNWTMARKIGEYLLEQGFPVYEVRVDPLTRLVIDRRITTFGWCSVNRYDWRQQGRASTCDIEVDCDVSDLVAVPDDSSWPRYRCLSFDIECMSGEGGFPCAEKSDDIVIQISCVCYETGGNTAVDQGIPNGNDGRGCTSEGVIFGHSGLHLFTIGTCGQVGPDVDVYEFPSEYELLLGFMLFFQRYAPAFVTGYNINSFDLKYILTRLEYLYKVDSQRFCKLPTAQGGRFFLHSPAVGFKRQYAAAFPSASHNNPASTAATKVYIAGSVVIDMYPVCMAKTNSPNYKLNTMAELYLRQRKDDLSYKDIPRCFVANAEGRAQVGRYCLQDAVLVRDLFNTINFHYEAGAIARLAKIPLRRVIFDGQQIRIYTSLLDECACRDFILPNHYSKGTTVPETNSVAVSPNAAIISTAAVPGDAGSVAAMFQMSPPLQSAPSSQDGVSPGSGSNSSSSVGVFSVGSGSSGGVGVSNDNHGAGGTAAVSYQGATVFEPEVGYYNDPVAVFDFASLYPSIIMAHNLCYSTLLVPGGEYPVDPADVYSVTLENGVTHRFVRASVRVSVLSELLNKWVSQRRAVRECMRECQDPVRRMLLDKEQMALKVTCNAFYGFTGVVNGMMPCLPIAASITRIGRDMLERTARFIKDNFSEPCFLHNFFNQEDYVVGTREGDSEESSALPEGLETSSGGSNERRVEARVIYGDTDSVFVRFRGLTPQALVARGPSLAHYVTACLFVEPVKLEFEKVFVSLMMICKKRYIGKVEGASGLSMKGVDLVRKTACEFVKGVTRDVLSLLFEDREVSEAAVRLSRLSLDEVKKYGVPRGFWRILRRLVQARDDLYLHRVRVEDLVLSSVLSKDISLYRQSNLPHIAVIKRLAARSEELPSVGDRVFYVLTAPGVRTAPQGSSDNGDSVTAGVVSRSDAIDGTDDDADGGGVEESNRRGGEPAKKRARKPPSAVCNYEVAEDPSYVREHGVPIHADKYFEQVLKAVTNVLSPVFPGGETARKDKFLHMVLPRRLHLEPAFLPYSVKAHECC
In words: HCMV polymerase assay (scintillation proximity assay). The experiment is classed as biochemical. The following applies: Table 9; read-out: CMV pol Assay- IC50. The protocol:
The HCMV polymerase assay is performed using a scintillation proximity assay (SPA) as described in several references, such as N. D. Cook, et al., Pharmaceutical Manufacturing International, pages 49-53 (1992); K. Takeuchi, Laboratory Practice, September issue (1992); U.S. Pat. No. 4,568,649 (1986); which are incorporated by reference herein. Reactions are performed in 96-well plates. The assay is conducted in 100 μl volume with 5.4 mM HEPES (pH 7.5), 11.7 mM KCl, 4.5 mM MgCl2, 0.36 mg/ml BSA, and 90 nM ^3H-dTTP. Assays are run with and without CHAPS, (3-[(3-Cholamidopropyl)-dimethylammonio]-1-propane-sulfonate) at a final concentration of 2 mM. HCMV is diluted in enzyme dilution buffer containing 50% glycerol, 250 mM NaCl, 10 mM HEPES (pH 7.5), 100 pg/ml BSA, and 0.01% sodium azide. The HCMV polymerase, which is expressed in recombinant baculovirus-infected SF-9 cells and purified according to literature procedures, is added at 10% (or 10 μl) of the final reaction volume, i.e., 100 μl. Compounds are diluted in 50% DMSO and 10 μl are added to each well. Control wells contain an equivalent concentration of DMSO. Unless noted otherwise, reactions are initiated via the addition of 6 nM biotinylated poly(dA)-oligo(dT) template/primer to reaction mixtures containing the enzyme, substrate, and compounds of interest. Plates are incubated in a 25° C. of 37° C. H2O bath and terminated via the addition of 40 μl/reaction of 0.5 M EDTA (pH 8) per well. Reactions are terminated within the time-frame during which substrate incorporation is linear and varied depending upon the enzyme and conditions used, i.e., 30 min. for HCMV polymerase. Ten μl of streptavidin-SPA beads (20 mg/ml in PBS/10% glycerol) are added following termination of the reaction. Plates are incubated 10 min. at 37° C., then equilibrated to room temperature, and counted on a Packard Topcount. Linear regressions are performed and IC50's are calculated using computer software. Results of the testing of compounds of the present invention in this assay are shown in Tables 1, 2, 5, 9, 10, 11, 13 (except for the last compound which was tested under modified conditions) and 14 below.
(In general: Scintillation proximity formats need no separation of bound from free tracer.)
Take `CC(NC(=O)c1ccc2cccnc2c1O)c1ccc(Br)cc1` (stereo not drawn): the IC50 was determined as 2.6 µM.
Take `O=C(NCc1cccc(Cl)c1Cl)c1ccc2cccnc2c1O`: the IC50 is 14.6 µM.
For `O=C(NCc1ccc(C(F)(F)F)cc1)c1ccc2cccnc2c1O`, the IC50 came to 13.7 µM.
`O=C(NC1(CO)CCCC1)c1ccc2cccnc2c1O`: the IC50 is 6.6 µM.
In the case of `O=C(NCCc1ccc(Oc2ccccc2)cc1)c1ccc2cccnc2c1O`, the IC50 is 4.5 µM.
As for `O=C(NCCSc1ccccc1)c1ccc2cccnc2c1O`, the IC50 is 9.2 µM.
As to `O=C(N[C@H](c1ccccc1)[C@@H](O)c1ccccc1)c1ccc2cccnc2c1O`, the IC50 was 2.9 µM and 6.4 µM.
`O=C(NCCSCc1c(F)cccc1Cl)c1ccc2cccnc2c1O`: the IC50 turned out to be 9.6 µM.
Consider `O=C(NC1CCCCCCC1)c1ccc2cccnc2c1O`, for which the half-maximal inhibitory concentration (IC50) was determined as 7.6 µM.
Still for that read-out and setting: in the case of `CCCCCCCCNC(=O)c1ccc2cccnc2c1O` it was 5.6 µM.
Take `CCCCCCCCCCCNC(=O)c1ccc2cccnc2c1O`: the IC50 is under 3.1 µM.
Take `CC(C)(C)OC(=O)[C@H](Cc1ccc(O)cc1)NC(=O)c1ccc2cccnc2c1O`: the IC50 amounted to 8.1 µM.
On to `COC(=O)[C@H](Cc1ccc(OCc2ccccc2)cc1)NC(=O)c1ccc2cccnc2c1O`, for which the IC50 was found to be 4.9 µM.
Regarding `O=C(NCc1c(F)cccc1F)c1ccc2cccnc2c1O`, the IC50 came out at 7.1 µM.
On to `Cc1cccc(CNC(=O)c2ccc3cccnc3c2O)c1`, for which the IC50 was 22.6 µM.
In the case of `CCCCCCCCCCCCCCCCCCNC(=O)c1ccc2cccnc2c1O`, the IC50 stood at 20.7 µM.
As for `O=C(NC1C2CC3CC(C2)CC1C3)c1ccc2cccnc2c1O` (stereo not drawn), the IC50 is 24.3 µM.
Take `O=C(NCc1ccc(Cl)cc1Cl)c1ccc2cccnc2c1O`: the IC50 is 5.2 µM.
In the case of `O=C(NCc1cccc(Cl)c1)c1ccc2cccnc2c1O`, the IC50 came out at 8.7 µM.
In the case of `O=C(NCCCc1ccccc1)c1ccc2cccnc2c1O`, the IC50 was determined as 9.3 µM.
On to `CCCCCCC(C)NC(=O)c1ccc2cccnc2c1O` (stereo not drawn), for which the IC50 is 1.7 µM.
`CC1(C)C2CCC(CNC(=O)c3ccc4cccnc4c3O)C1C2` (stereo not drawn): the IC50 came out at 1.5 µM.
Take `CCCCCC(C)NC(=O)c1ccc2cccnc2c1O` (stereo not drawn): the half-inhibitory concentration (IC50) stood at 7.9 µM.
For the compound `CC1CCCC(NC(=O)c2ccc3cccnc3c2O)C1` (stereo not drawn), the IC50 is 20.6 µM.
For `C[C@@H](NC(=O)c1ccc2cccnc2c1O)c1ccc(Br)cc1`, the IC50 came out at 4.6 µM.
Turning to `O=C(NCC1CCCCC1)c1ccc2cccnc2c1O`, the IC50 was 24.2 µM.
In the case of `O=C(NCc1ccccc1Sc1ccccc1CO)c1ccc2cccnc2c1O`, the 50% inhibitory concentration (IC50) was determined as 9.4 µM.

Staying with this experiment, now noted: Table 10; CMV pol Assay; read-out: IC50.
As to `Cc1cc(Cl)ccc1NC(=O)c1ccc2cccnc2c1O`, the IC50 amounted to 3.6 µM.
As to `O=C(Nc1ccccc1-c1ccccc1)c1ccc2cccnc2c1O`, the IC50 was 4.3 µM.
`O=C(Nc1ccc(OCc2ccccc2)cc1)c1ccc2cccnc2c1O`: the IC50 was 4.1 µM.
As to `O=C(Nc1cc(Cl)c(O)c(Cl)c1)c1ccc2cccnc2c1O`, the IC50 amounted to 30.5 µM.
Take `O=C(Nc1cccc(Cl)c1)c1ccc2cccnc2c1O`: the IC50 is 1.7 µM.
For the compound `O=C(Nc1cc(F)cc(F)c1)c1ccc2cccnc2c1O`, the IC50 was 26.3 µM.
For the compound `O=C(Nc1ccc(Sc2ccc([N+](=O)[O-])cc2)cc1)c1ccc2cccnc2c1O`, the IC50 was over 100 µM.
In the case of `Cc1ccc(NC(=O)c2ccc3cccnc3c2O)c(C)c1` [drawing 223], the half-inhibitory concentration (IC50) is 22.4 µM.
As to `Cc1c(NC(=O)c2ccc3cccnc3c2O)cccc1[N+](=O)[O-]`, the IC50 amounted to 5.5 µM.
With `O=C(Nc1ccccc1[N+](=O)[O-])c1ccc2cccnc2c1O`, the IC50 was over 100 µM.
Turning to `O=C(Nc1ccc2cccc(O)c2n1)c1ccc2cccnc2c1O`, the IC50 was 14.5 µM.
In the case of `O=C(Nc1ccc2c(c1)OCO2)c1ccc2cccnc2c1O`, the IC50 turned out to be 16.4 µM.
For the compound `O=C(Nc1cc(C(F)(F)F)ccc1Cl)c1ccc2cccnc2c1O` [drawing 221], the IC50 is 14 µM.
With `Cc1ccc(F)cc1NC(=O)c1ccc2cccnc2c1O` [drawing 222], the IC50 is 14.7 µM.
On to `O=C(Nc1ccc(S(=O)(=O)Nc2ccc3cn[nH]c3c2)cc1)c1ccc2cccnc2c1O`, for which the IC50 worked out at 2.4 µM.
For `O=C(Nc1cccc(OCc2ccccc2)c1)c1ccc2cccnc2c1O`, the IC50 was determined as 2.9 µM.
As for `O=C(Nc1ccccc1I)c1ccc2cccnc2c1O`, the IC50 was determined as 12.5 µM.
As to `Cc1cccc(NC(=O)c2ccc3cccnc3c2O)c1C`, the IC50 is 8.6 µM.
Turning to `CCc1ccccc1NC(=O)c1ccc2cccnc2c1O`, the IC50 came out at 7.3 µM.
Consider `O=C(Nc1cc(F)c(F)cc1F)c1ccc2cccnc2c1O`, for which the IC50 was 27.4 µM.
For `COc1cc(Cl)c(C)cc1NC(=O)c1ccc2cccnc2c1O`, the IC50 stood at 7.9 µM.
In the case of `Cc1cccc(NC(=O)c2ccc3cccnc3c2O)c1` [drawing 224], the half-inhibitory concentration (IC50) was 12.2 µM.
Take `O=C(Nc1cccc(C(F)(F)F)c1)c1ccc2cccnc2c1O`: the IC50 is 18.4 µM.
As for `O=C(Nc1ccc(Br)cc1)c1ccc2cccnc2c1O`, the IC50 is 29.7 µM.
The same measure, in the same setting: in the case of `Cc1cc(F)ccc1NC(=O)c1ccc2cccnc2c1O` it was 10.2 µM; in that of `O=C(Nc1ccccc1Cl)c1ccc2cccnc2c1O`, 9.4 µM.
On to `O=C(Nc1cccc(Br)c1)c1ccc2cccnc2c1O`, for which the IC50 amounted to 9.2 µM.

Still in this experiment, the particulars now being: Table 11; read-out: CMV pol Assay IC50.
For `CC(C)(C)OC(=O)NCCNc1nnc(NC(=O)c2ccc3cccnc3c2O)s1`, the IC50 is 14.3 µM.
With `CC(C)(C)OC(=O)C(Nc1nnc(NC(=O)c2ccc3cccnc3c2O)s1)c1ccc2c(c1)OCO2` (stereo not drawn), the IC50 came to 4.3 µM.
As to `CC(C)C[C@H](Nc1nnc(NC(=O)c2ccc3cccnc3c2O)s1)C(=O)OC(C)(C)C`, the IC50 was found to be 11.4 µM.
For `CSCC[C@H](Nc1nnc(NC(=O)c2ccc3cccnc3c2O)s1)C(=O)OC(C)(C)C`, the IC50 turned out to be 26.6 µM.
With `COC(=O)[C@H](Cc1ccccc1)Nc1nnc(NC(=O)c2ccc3cccnc3c2O)s1`, the IC50 stood at 15.4 µM.
For `CCCCNc1nnc(NC(=O)c2ccc3cccnc3c2O)s1`, the IC50 was determined as 2.5 µM.
`CC(C)(C)OC(=O)C(Nc1nnc(NC(=O)c2ccc3cccnc3c2O)s1)c1cccc2c1OCO2` (stereo not drawn): the IC50 turned out to be 4.7 µM.

The experiment is the same for the next values; noted with them: Table 13; read-out: IC50.
As for `O=C(NC1=NC(=O)C(Cc2ccc(Cl)cc2)S1)c1ccc2cccnc2c1O` (stereo not drawn), the IC50 turned out to be 1.7 µM.
Turning to `Cc1ccc2ccc(C(=O)Nc3ccc(Cl)cc3)c(O)c2n1`, the IC50 amounted to 7.6 µM.
In the case of `Cc1cc(O)c2ccc(C(=O)NCc3ccc(Cl)cc3)c(O)c2n1`, the IC50 was determined as 102 µM.
Turning to `O=C(NCCSc1ccccc1)c1ccc2ccc(C(F)(F)F)nc2c1O`, the 50% inhibitory concentration (IC50) amounted to 41.6 µM.

The same experiment, now with this note: Table 14; 25 uM.
Consider `O=C(N[C@H]1CC[C@H](O)CC1)c1ccc2cccnc2c1O`, for which testing at 25 µM gave an inhibition of 21%.
For `O=C(NC(CO)c1ccccc1)c1ccc2cccnc2c1O` (stereo not drawn), 25 µM produced 39% inhibition.
The compound `O=C(NCCc1ccc(F)cc1)c1ccc2cccnc2c1O` showed an inhibition at 25 µM of 42%.
`O=C(NCCc1ccccc1F)c1ccc2cccnc2c1O` displayed an inhibition at 25 µM of 39%.

The same experiment, now with this note: Table 14; read-out: IC50.
Consider `O=C(NC(CO)C(O)c1ccccc1)c1ccc2cccnc2c1O` (stereo not drawn), for which the IC50 came to 14 µM.
For the compound `CCOC(=O)C(Cc1ccccc1)NC(=O)c1ccc2cccnc2c1O` (stereo not drawn), the IC50 is 41 µM.
The same measure, in the same setting: in the case of `O=C(NCc1c(F)cccc1Cl)c1ccc2cccnc2c1O` it was 30 µM.
